Experimental data from PubChem BioAssay (NCI).
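Grown in 96-well plates, cells were treated for 48 hours with each compound at five concentrations. Insufficient inhibition: endpoint recorded as highest concentration tested. TGI denotes the concentration required for complete inhibition of growth.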

Assays:
Assay in all cases: NCI anticancer screen, dose series, 48 h
786-0 renal = system: 786-0 renal
A498 renal = system: A498 renal
A549 NSCLC = system: A549 NSCLC
ACHN renal = system: ACHN renal
BT-549 breast = system: BT-549 breast
CAKI-1 renal = system: CAKI-1 renal
CCRF-CEM leukemia = system: CCRF-CEM leukemia
COLO 205 colon = system: COLO 205 colon
DU-145 prostate = system: DU-145 prostate
EKVX NSCLC = system: EKVX NSCLC
HCT-116 colon = system: HCT-116 colon
HL-60(TB) leukemia = system: HL-60(TB) leukemia
HOP-62 NSCLC = system: HOP-62 NSCLC
HOP-92 NSCLC = system: HOP-92 NSCLC
HS 578T breast = system: HS 578T breast
HT29 colon = system: HT29 colon
IGROV1 ovarian = system: IGROV1 ovarian
K-562 leukemia = system: K-562 leukemia
KM12 colon = system: KM12 colon
LOX IMVI melanoma = system: LOX IMVI melanoma
M14 melanoma = system: M14 melanoma
MALME-3M melanoma = system: MALME-3M melanoma
MCF7 breast = system: MCF7 breast
MDA-MB-231 breast = system: MDA-MB-231 breast
MDA-N = system: MDA-N
MOLT-4 leukemia = system: MOLT-4 leukemia
NCI-H23 lung = system: NCI-H23 lung
NCI-H522 lung = system: NCI-H522 lung
NCI/ADR-RES ovarian = system: NCI/ADR-RES ovarian
OVCAR-3 ovarian = system: OVCAR-3 ovarian
OVCAR-4 ovarian = system: OVCAR-4 ovarian
OVCAR-5 ovarian = system: OVCAR-5 ovarian
OVCAR-8 ovarian = system: OVCAR-8 ovarian
PC-3 prostate = system: PC-3 prostate
RPMI-8226 leukemia = system: RPMI-8226 leukemia
RXF 393 renal = system: RXF 393 renal
SF-268 CNS = system: SF-268 CNS
SF-295 CNS = system: SF-295 CNS
SF-539 CNS = system: SF-539 CNS
SK-MEL-2 melanoma = system: SK-MEL-2 melanoma
SK-MEL-28 melanoma = system: SK-MEL-28 melanoma
SK-MEL-5 melanoma = system: SK-MEL-5 melanoma
SK-OV-3 ovarian = system: SK-OV-3 ovarian
SN12C renal = system: SN12C renal
SNB-19 CNS = system: SNB-19 CNS
SNB-75 CNS = system: SNB-75 CNS
SR leukemia = system: SR leukemia
SW-620 colon = system: SW-620 colon
T-47D breast = system: T-47D breast
TK-10 renal = system: TK-10 renal
U251 CNS = system: U251 CNS
UACC-257 melanoma = system: UACC-257 melanoma
UACC-62 melanoma = system: UACC-62 melanoma
UO-31 renal = system: UO-31 renal
HCC-2998 colon = system: HCC-2998 colon
HCT-15 colon = system: HCT-15 colon
MDA-MB-435 = system: MDA-MB-435
NCI-H226 lung = system: NCI-H226 lung
NCI-H460 lung = system: NCI-H460 lung

Compound: O=C1C(Br)=C(C2=CC(=P(c3ccccc3)(c3ccccc3)c3ccccc3)C=C2)C(=O)C(Br)=C1C1=CC(=P(c2ccccc2)(c2ccccc2)c2ccccc2)C=C1
- TGI (786-0 renal): > 100 µM
- TGI (A498 renal): > 100 µM
- TGI (A549 NSCLC): > 100 µM
- TGI (ACHN renal): > 100 µM
- TGI (BT-549 breast): > 100 µM
- TGI (CAKI-1 renal): > 100 µM
- TGI (CCRF-CEM leukemia): > 100 µM
- TGI (COLO 205 colon): > 100 µM
- TGI (DU-145 prostate): > 100 µM
- TGI (EKVX NSCLC): 34 µM
- TGI (HCT-116 colon): > 100 µM
- TGI (HL-60(TB) leukemia): > 100 µM
- TGI (HOP-62 NSCLC): > 100 µM
- TGI (HOP-92 NSCLC): 55.5 µM
- TGI (HS 578T breast): > 100 µM
- TGI (HT29 colon): > 100 µM
- TGI (IGROV1 ovarian): > 100 µM
- TGI (K-562 leukemia): > 100 µM
- TGI (KM12 colon): > 100 µM
- TGI (LOX IMVI melanoma): > 100 µM
- TGI (M14 melanoma): 25.1 µM
- TGI (MALME-3M melanoma): 34.1 µM
- TGI (MCF7 breast): > 100 µM
- TGI (MDA-MB-231 breast): > 100 µM
- TGI (MDA-N): > 100 µM
- TGI (MOLT-4 leukemia): > 100 µM
- TGI (NCI-H23 lung): > 100 µM
- TGI (NCI-H522 lung): 42.9 µM
- TGI (NCI/ADR-RES ovarian): > 100 µM
- TGI (OVCAR-3 ovarian): > 100 µM
- TGI (OVCAR-4 ovarian): > 100 µM
- TGI (OVCAR-5 ovarian): 31.7 µM
- TGI (OVCAR-8 ovarian): > 100 µM
- TGI (PC-3 prostate): > 100 µM
- TGI (RPMI-8226 leukemia): > 100 µM
- TGI (RXF 393 renal): > 100 µM
- TGI (SF-268 CNS): > 100 µM
- TGI (SF-295 CNS): > 100 µM
- TGI (SF-539 CNS): > 100 µM
- TGI (SK-MEL-2 melanoma): > 100 µM
- TGI (SK-MEL-28 melanoma): > 100 µM
- TGI (SK-MEL-5 melanoma): > 100 µM
- TGI (SK-OV-3 ovarian): > 100 µM
- TGI (SN12C renal): > 100 µM
- TGI (SNB-19 CNS): > 100 µM
- TGI (SNB-75 CNS): > 100 µM
- TGI (SR leukemia): > 100 µM
- TGI (SW-620 colon): 35 µM
- TGI (T-47D breast): > 100 µM
- TGI (TK-10 renal): > 100 µM
- TGI (U251 CNS): 30.6 µM
- TGI (UACC-257 melanoma): 95.1 µM
- TGI (UACC-62 melanoma): > 100 µM
- TGI (UO-31 renal): > 100 µM

Compound: C=Cc1c(C)c(O)cc2c1-c1ccc(O)c(C)c1CC2
- TGI (786-0 renal): 34 µM
- TGI (A498 renal): 27.7 µM
- TGI (A549 NSCLC): 55.7 µM
- TGI (ACHN renal): 81.1 µM
- TGI (BT-549 breast): 59.7 µM
- TGI (CAKI-1 renal): 46.2 µM
- TGI (CCRF-CEM leukemia): 40.6 µM
- TGI (COLO 205 colon): 41.8 µM
- TGI (DU-145 prostate): 28.5 µM
- TGI (EKVX NSCLC): 24.3 µM
- TGI (HCC-2998 colon): 35.3 µM
- TGI (HCT-116 colon): 28.4 µM
- TGI (HCT-15 colon): 44.5 µM
- TGI (HL-60(TB) leukemia): 38.6 µM
- TGI (HOP-62 NSCLC): 83.8 µM
- TGI (HOP-92 NSCLC): 54.5 µM
- TGI (HS 578T breast): 21.7 µM
- TGI (HT29 colon): 53.2 µM
- TGI (IGROV1 ovarian): 35.6 µM
- TGI (KM12 colon): 30 µM
- TGI (LOX IMVI melanoma): 31.8 µM
- TGI (M14 melanoma): 52.5 µM
- TGI (MALME-3M melanoma): 45.9 µM
- TGI (MCF7 breast): 38.9 µM
- TGI (MDA-MB-231 breast): 60.6 µM
- TGI (MDA-MB-435): 28.2 µM
- TGI (MDA-N): 36.6 µM
- TGI (MOLT-4 leukemia): 30.6 µM
- TGI (NCI-H226 lung): 43 µM
- TGI (NCI-H23 lung): 41.3 µM
- TGI (NCI-H460 lung): 45 µM
- TGI (NCI-H522 lung): 43.1 µM
- TGI (NCI/ADR-RES ovarian): 71.8 µM
- TGI (OVCAR-3 ovarian): > 100 µM
- TGI (OVCAR-4 ovarian): 92 µM
- TGI (OVCAR-5 ovarian): > 100 µM
- TGI (OVCAR-8 ovarian): 39.4 µM
- TGI (RPMI-8226 leukemia): 56.6 µM
- TGI (RXF 393 renal): 30.2 µM
- TGI (SF-268 CNS): 63.5 µM
- TGI (SF-295 CNS): 32.2 µM
- TGI (SF-539 CNS): 29.3 µM
- TGI (SK-MEL-2 melanoma): 35.5 µM
- TGI (SK-MEL-28 melanoma): 31.5 µM
- TGI (SK-MEL-5 melanoma): 33 µM
- TGI (SK-OV-3 ovarian): 36.2 µM
- TGI (SN12C renal): 43.1 µM
- TGI (SNB-19 CNS): 74.5 µM
- TGI (SR leukemia): 17.7 µM
- TGI (SW-620 colon): 54.6 µM
- TGI (T-47D breast): 27.1 µM
- TGI (TK-10 renal): 41.4 µM
- TGI (U251 CNS): 34.3 µM
- TGI (UACC-257 melanoma): 28 µM
- TGI (UACC-62 melanoma): 23.1 µM
- TGI (UO-31 renal): 32.2 µM
